Starred links: 1 amine or outer side, 2 acyl side, 3 side chain; linkers in the order of their positions; H or OH if unused. Positions of bridges follow the written chain, without caps; N, C: chain ends. Non-standard residues stand in square brackets, D forms with d. Residues, ends and D or L forms follow the SMILES beside them. *: point of attachment. C20 diacid = O=C(O)CCCCCCCCCCCCCCCCCCC(=O)*; C18 diacid = O=C(O)CCCCCCCCCCCCCCCCC(=O)*; γGlu = O=C(O)[C@H](CCC(=O)[*:2])N[*:1]; Orn = NCCC[C@H](N)C(=O)O; AEEA = NCCOCCOCC(=O)O
Test system: ad libitum fed rat
Test: Assay (I) efficacy testing on appetite (food intake) using an ad libitum fed rat model
Assay type: in vivo, Sprague Dawley (SD) rats
Settings: 3 nmol/kg
Excerpt: In the following examples reference is made to the following Assays: • Assay (I)—Experimental protocol for efficacy testing on appetite using an ad libitum fed rat model • ASSAY (II)a—Functional assay—Human calcitonin and amylin receptor assay • ASSAY (II)b—Functional assay—Rat calcitonin and rat amylin receptor assays • ASSAY (III)—ThT fibrillation assays for the assessment of physical stability of protein formulations • ASSAY (IV)—Determination of solubility • ASSAY (V)—Determination of binding to the human amylin receptor • ASSAY (VI)—Determination of the binding to the rat amylin receptor • ASSAY (VII)—Determination of binding to the human calcitonin receptor • ASSAY (VIII)—Determination of binding to the rat calcitonin receptor • ASSAY (IX)—pK—Determination of T½ in mini-pig • ASSAY (X)—pK—Determination of T½ in rat Assay (I)—Experimental protocol for Efficacy Testing on Appetite Using an Ad Libitum Fed Rat Model
Sprague Dawley (SD) rats from Taconic Europe, Denmark are used for the experiments. The rats have a body weight 200-250 g at the start of experiment. The rats arrive at least 10-14 days before start of experiment to allow acclimatization to experimental settings. During this period the animals are handled at least 2 times. After arrival rats are housed individually for one week in a reversed light/dark phase (meaning that lights are off during daytime and on during nighttime) […]. Since rats are normally active and eat their major part of their daily food intake during the dark period, rats are dosed in the morning right before lights are turned off. This set-up results in the lowest data variation and highest test sensitivity. The experiment is conducted in the rats' home cages and rats have free access to food and water throughout the acclimatization period and the experiment period. Each dose of derivative is tested in a group of 5-8 rats. A vehicle group of 6-8 rats is included in each set of testing. Rats are dosed once according to body weight with a 0.01-3 mg/kg solution administered intraperitoneally (ip), orally (po) or subcutaneously (sc). The time of dosing is recorded for each group. After dosing, the rats are returned to their home cages, where they then have access to food and water. The food consumption is recorded individually continuously by on-line registration or manually every hour for 7 hours, and then after 24 h and sometimes 48 h. At the end of the experimental session, the animals are euthanised.
The individual data are recorded in Microsoft excel sheets. Outliers are excluded after applying the Grubbs statistical evaluation test for outliers, and the result is presented graphically using the GraphPad Prism program.

Compound	Food intake reduction 0-24 h 3 nmol/kg (%)	Food intake reduction 24-48 h 3 nmol/kg (%)
CC[C@H](C)[C@H](NC(=O)[C@@H]1CCCN1C(=O)CNC(=O)[C@H](Cc1ccccc1)NC(=O)[C@H](CC(N)=O)NC(=O)[C@H](CC(N)=O)NC(=O)[C@H](CO)NC(=O)[C@H](CO)NC(=O)[C@H](CCCNC(=N)N)NC(=O)[C@H](Cc1c[nH]cn1)NC(=O)[C@H](CC(C)C)NC(=O)[C@H](Cc1ccccc1)NC(=O)[C@H](CCC(=O)O)NC(=O)[C@H](C)NC(=O)[C@H](CC(C)C)NC(=O)[C@H](CCCNC(=N)N)NC(=O)[C@H](CCC(N)=O)NC(=O)[C@@H](NC(=O)[C@H](C)NC(=O)[C@@H]1CSSC[C@H](NC(=O)CC[C@H](NC(=O)CCCCCCCCCCCCCCCCCCC(=O)O)C(=O)O)C(=O)NCC(=O)N[C@@H]([C@@H](C)O)C(=O)N[C@@H](C)C(=O)N[C@@H]([C@@H](C)O)C(=O)N1)[C@@H](C)O)C(=O)N[C@@H](CC(C)C)C(=O)N1CCC[C@H]1C(=O)N1CCC[C@H]1C(=O)N[C@H](C(=O)N[C@@H](CCC(=O)O)C(=O)N[C@H](C(=O)NCC(=O)N[C@@H](CO)C(=O)NCC(=O)N[C@H](C(=O)N[C@@H](Cc1ccc(O)cc1)C(N)=O)[C@@H](C)O)C(C)C)[C@@H](C)O [Example 3, N-alpha-[(S)-4-Carboxy-4-(19-carboxynonadecanoylamino)butyryl]-[des1,Gly3,Glu14,His17,Arg18,Glu31,Gly35]-pramlintide] ({C20 diacid-γGlu}-CGTATCATQRLAEFLHRSSNNFGPILPPTEVGSGTY-NH2; disulfide 1-6)	37	32
CC[C@H](C)[C@H](NC(=O)[C@@H]1CCCN1C(=O)CNC(=O)[C@H](Cc1ccccc1)NC(=O)[C@H](CC(N)=O)NC(=O)[C@H](CC(N)=O)NC(=O)[C@H](CO)NC(=O)[C@H](CO)NC(=O)[C@H](CCCNC(=N)N)NC(=O)[C@H](Cc1c[nH]cn1)NC(=O)[C@H](CC(C)C)NC(=O)[C@H](Cc1ccccc1)NC(=O)[C@H](CCC(=O)O)NC(=O)[C@H](C)NC(=O)[C@H](CC(C)C)NC(=O)[C@H](CCCNC(=N)N)NC(=O)[C@H](CCC(N)=O)NC(=O)[C@@H](NC(=O)[C@H](C)NC(=O)[C@@H]1CSSC[C@H](NC(=O)[C@H](CCC(=O)O)NC(=O)CC[C@H](NC(=O)CCCCCCCCCCCCCCCCCCC(=O)O)C(=O)O)C(=O)N[C@@H](CC(N)=O)C(=O)N[C@@H]([C@@H](C)O)C(=O)N[C@@H](C)C(=O)N[C@@H]([C@@H](C)O)C(=O)N1)[C@@H](C)O)C(=O)N[C@@H](CC(C)C)C(=O)N1CCC[C@H]1C(=O)N1CCC[C@H]1C(=O)N[C@H](C(=O)N[C@@H](CC(N)=O)C(=O)N[C@H](C(=O)NCC(=O)N[C@@H](CO)C(=O)N[C@@H](CC(N)=O)C(=O)N[C@H](C(=O)N1CCC[C@H]1C(N)=O)[C@@H](C)O)C(C)C)[C@@H](C)O [Example 10, N-alpha-[(S)-4-Carboxy-4-(19-carboxynonadecanoylamino)butyryl]-[Glu1,Glu14,His17,Arg18,Pro37]-pramlintide] ({C20 diacid-γGlu}-ECNTATCATQRLAEFLHRSSNNFGPILPPTNVGSNTP-NH2; disulfide 2-7 (inferred))	50	40
CC[C@H](C)[C@H](NC(=O)[C@@H]1CCCN1C(=O)CNC(=O)[C@H](Cc1ccccc1)NC(=O)[C@H](CC(N)=O)NC(=O)[C@H](CC(N)=O)NC(=O)[C@H](CO)NC(=O)[C@H](CO)NC(=O)[C@H](CCCNC(=N)N)NC(=O)[C@H](Cc1c[nH]cn1)NC(=O)[C@H](CC(C)C)NC(=O)[C@H](Cc1ccccc1)NC(=O)[C@H](CCC(=O)O)NC(=O)[C@H](C)NC(=O)[C@H](CC(C)C)NC(=O)[C@H](CCCNC(=N)N)NC(=O)[C@H](CCC(N)=O)NC(=O)[C@@H](NC(=O)[C@H](C)NC(=O)[C@@H]1CSSC[C@H](NC(=O)[C@H](CCCN)NC(=O)[C@@H](CCCNC(=N)N)NC(=O)[C@@H](CCCNC(=N)N)NC(=O)COCCOCCNC(=O)COCCOCCNC(=O)CC[C@H](NC(=O)CCCCCCCCCCCCCCCCC(=O)O)C(=O)O)C(=O)N[C@@H](CC(N)=O)C(=O)N[C@@H]([C@@H](C)O)C(=O)N[C@@H](C)C(=O)N[C@@H]([C@@H](C)O)C(=O)N1)[C@@H](C)O)C(=O)N[C@@H](CC(C)C)C(=O)N1CCC[C@H]1C(=O)N1CCC[C@H]1C(=O)N[C@H](C(=O)N[C@@H](CC(N)=O)C(=O)N[C@H](C(=O)NCC(=O)N[C@@H](CO)C(=O)N[C@@H](CC(N)=O)C(=O)N[C@H](C(=O)N[C@@H](Cc1ccc(O)cc1)C(N)=O)[C@@H](C)O)C(C)C)[C@@H](C)O [Example 120, N-alpha-[2-(2-{2-[2-(2-{2-[(S)-4-Carboxy-4-(17-carboxyheptadecanoylamino)butyrylamino]ethoxy}ethoxy)acetylamino]ethoxy}ethoxy)acetyl]-D-Arg-D-Arg-[Orn1,Glu14,His17,Arg18]-pramlintide] ({C18 diacid-γGlu-AEEA-AEEA}-[dR][dR][Orn]CNTATCATQRLAEFLHRSSNNFGPILPPTNVGSNTY-NH2; disulfide 4-9 (inferred))	53	2
CC[C@H](C)[C@H](NC(=O)[C@@H]1CCCN1C(=O)CNC(=O)[C@H](Cc1ccccc1)NC(=O)[C@H](CC(N)=O)NC(=O)[C@H](CC(N)=O)NC(=O)[C@H](CO)NC(=O)[C@H](CO)NC(=O)[C@H](Cc1c[nH]cn1)NC(=O)[C@H](Cc1c[nH]cn1)NC(=O)[C@H](CC(C)C)NC(=O)[C@H](Cc1ccccc1)NC(=O)[C@H](CCC(=O)O)NC(=O)[C@H](C)NC(=O)[C@H](CC(C)C)NC(=O)[C@H](CCCNC(=N)N)NC(=O)[C@H](CCC(N)=O)NC(=O)[C@@H](NC(=O)[C@H](C)NC(=O)[C@@H]1CSSC[C@H](NC(=O)[C@H](Cc2c[nH]cn2)NC(=O)[C@H](Cc2c[nH]cn2)NC(=O)CC[C@H](NC(=O)CCCCCCCCCCCCCCCCCCC(=O)O)C(=O)O)C(=O)N[C@@H](CC(N)=O)C(=O)N[C@@H]([C@@H](C)O)C(=O)N[C@@H](C)C(=O)N[C@@H]([C@@H](C)O)C(=O)N1)[C@@H](C)O)C(=O)N[C@@H](CC(C)C)C(=O)N1CCC[C@H]1C(=O)N1CCC[C@H]1C(=O)N[C@H](C(=O)N[C@@H](CC(N)=O)C(=O)N[C@H](C(=O)NCC(=O)N[C@@H](CO)C(=O)N[C@@H](CC(N)=O)C(=O)N[C@H](C(=O)N[C@@H](Cc1ccc(O)cc1)C(N)=O)[C@@H](C)O)C(C)C)[C@@H](C)O [Example 17, N-alpha-[(S)-4-Carboxy-4-(19-carboxynonadecanoylamino)butyryl]-His-[His1,Glu14,His17]-pramlintide] ({C20 diacid-γGlu}-HHCNTATCATQRLAEFLHHSSNNFGPILPPTNVGSNTY-NH2; disulfide 3-8)	40	22
CC[C@H](C)[C@H](NC(=O)[C@@H]1CCCN1C(=O)CNC(=O)[C@H](Cc1ccccc1)NC(=O)[C@H](CC(N)=O)NC(=O)[C@H](CC(N)=O)NC(=O)[C@H](CO)NC(=O)[C@H](CO)NC(=O)[C@H](CCCNC(=N)N)NC(=O)[C@@H](NC(=O)[C@H](CC(C)C)NC(=O)[C@H](Cc1ccccc1)NC(=O)[C@H](CCC(=O)O)NC(=O)[C@H](C)NC(=O)[C@H](CC(C)C)NC(=O)[C@H](CCCNC(=N)N)NC(=O)[C@H](CCC(N)=O)NC(=O)[C@@H](NC(=O)[C@H](C)NC(=O)[C@@H]1CSSC[C@H](NC(=O)[C@H](Cc2c[nH]cn2)NC(=O)CC[C@H](NC(=O)CCCCCCCCCCCCCCCCCCC(=O)O)C(=O)O)C(=O)N[C@@H](CC(N)=O)C(=O)N[C@@H]([C@@H](C)O)C(=O)N[C@@H](C)C(=O)N[C@@H]([C@@H](C)O)C(=O)N1)[C@@H](C)O)C(C)C)C(=O)N[C@@H](CC(C)C)C(=O)N1CCC[C@H]1C(=O)N1CCC[C@H]1C(=O)N[C@H](C(=O)N[C@@H](CC(N)=O)C(=O)N[C@H](C(=O)NCC(=O)N[C@@H](CO)C(=O)N[C@@H](CC(N)=O)C(=O)N[C@H](C(=O)N[C@@H](Cc1ccc(O)cc1)C(N)=O)[C@@H](C)O)C(C)C)[C@@H](C)O [Example 15] ({C20 diacid-γGlu}-HCNTATCATQRLAEFLVRSSNNFGPILPPTNVGSNTY-NH2; disulfide 2-7 (inferred))	56	59
